# According to US20030039697A1, “Matrices containing nitric oxide donors and reducing agents and their use” (priority 2002, published 2003):
# System: E. coli
# Type: cell-based
compound,measurement,value
"N[C@@H](CCC(=O)N[C@@H](CSN=O)C(=O)NCC(=O)O)C(=O)O [GSNO, S-nitroso-L-glutathione]",growth of bacteria (E. coli) with coated catheter segments,inhibits growth of bacteria
